# Measured values from publication PMC5065108 (Molecular cancer therapeutics, 2016).
# Assays:
# [1] = biological target: p210 BCR-ABL (wild type) (Homo sapiens, UniProt P00519); test: Western blot of phospho-c-ABL; assay type: cell-based
# [2] = biological target: p210 BCR-ABL T315I (p210^T315I) (Homo sapiens, UniProt P00519, T315I); test: Western blot of phospho-c-ABL; assay type: cell-based
smiles,measurement,setting,value
Cc1cnc(Nc2ccc(N3CCN(C)CC3)cc2)nc1Nc1cccc(S(=O)(=O)NC(C)(C)C)c1 [TG101209],IC50,[1],2.5 µM
same,IC50,[2],17.5 µM
